How the values were obtained:
Assay in all cases: relative viability (nuclei count vs DMSO), 5 days (fraction); higher = more cells survive
[1] = compound: COC1=CC=C(C=C1)CN2C=CC3=C2C=C(C=C3)C(=O)NO + Nc1nc2[nH]cc(CCc3ccc(C(=O)N[C@@H](CCC(=O)O)C(=O)O)cc3)c2c(=O)[nH]1 [Pemetrexed] (partner 0.2 µM)
Outline: (§1)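 One day after seeding in 1536-well plates, lung cancer cell lines were dosed by pin tool. Dosing was either single-drug or a fixed anchor-drug dose plus five library-drug doses (not always all listed) in √10 steps. After 5 days, nuclei were stained in one fix-and-stain step and counted on 4× images, and relative viability is the nuclei count of treated wells over that of vehicle wells, given as the median of duplicate plates.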

Veliparib + Trametinib = compound: C[C@]1(c2nc3c(C(N)=O)cccc3[nH]2)CCCN1 [Veliparib] + CC(=O)Nc1cccc(-n2c(=O)n(C3CC3)c(=O)c3c(Nc4ccc(I)cc4F)n(C)c(=O)c(C)c32)c1 [Trametinib] (partner 0.02 µM)
Outline: as §1

Veliparib + Foretinib = compound: C[C@]1(c2nc3c(C(N)=O)cccc3[nH]2)CCCN1 [Veliparib] + COc1cc2c(Oc3ccc(NC(=O)C4(C(=O)Nc5ccc(F)cc5)CC4)cc3F)ccnc2cc1OCCCN1CCOCC1 [Foretinib] (partner 0.25 µM)
Outline: as §1

Veliparib + Pemetrexed = compound: C[C@]1(c2nc3c(C(N)=O)cccc3[nH]2)CCCN1 [Veliparib] + Nc1nc2[nH]cc(CCc3ccc(C(=O)N[C@@H](CCC(=O)O)C(=O)O)cc3)c2c(=O)[nH]1 [Pemetrexed] (partner 0.2 µM)
Outline: as §1

Cell Line	relative viability ([1]; first compound 0.08 µM)	relative viability ([1]; first compound 0.253 µM)	relative viability ([1]; first compound 0.8 µM)	relative viability ([1]; first compound 2.53 µM)	relative viability ([1]; first compound 8 µM)	relative viability (Veliparib + Trametinib; first compound 0.02 µM)	relative viability (Veliparib + Trametinib; first compound 0.06325 µM)	relative viability (Veliparib + Trametinib; first compound 0.2 µM)	relative viability (Veliparib + Trametinib; first compound 0.6325 µM)	relative viability (Veliparib + Trametinib; first compound 2 µM)	relative viability (Veliparib + Foretinib; first compound 0.02 µM)	relative viability (Veliparib + Foretinib; first compound 0.06325 µM)	relative viability (Veliparib + Foretinib; first compound 0.2 µM)	relative viability (Veliparib + Foretinib; first compound 0.6325 µM)	relative viability (Veliparib + Foretinib; first compound 2 µM)	relative viability (Veliparib + Pemetrexed; first compound 0.02 µM)	relative viability (Veliparib + Pemetrexed; first compound 0.06325 µM)	relative viability (Veliparib + Pemetrexed; first compound 0.2 µM)	relative viability (Veliparib + Pemetrexed; first compound 0.6325 µM)	relative viability (Veliparib + Pemetrexed; first compound 2 µM)
H3255	0.576	0.519	0.614	0.583	0.583	0.614	0.572	0.672	0.624	0.632	0.739	0.462	0.811	0.78	0.795	0.541	0.561	0.548	0.53	0.629
NCI-H2405	0.979	–	1.02	1.03	0.948	0.627	–	0.64	0.578	0.745	1.09	0.937	1.08	1.03	1.07	1.08	–	1.11	0.978	1.04
RERF-LC-KJ	0.442	0.502	0.482	0.501	0.521	0.938	0.822	0.899	0.845	0.858	0.881	0.807	0.879	0.888	0.889	0.43	0.454	0.505	0.462	0.464
NCI-H1734	–	0.413	0.427	0.4	0.414	–	0.613	0.792	0.631	0.72	0.797	0.85	0.886	0.832	0.836	–	0.396	0.398	0.389	0.392
HCC-827	0.228	0.27	0.262	0.266	0.253	0.59	0.514	0.529	0.504	0.516	1.08	1.01	0.984	1.03	1.02	0.25	0.282	0.256	0.215	0.273
NCI-H520	0.525	0.743	0.641	0.661	0.648	0.749	0.68	0.721	0.646	0.705	0.824	0.763	0.805	0.601	0.647	0.877	0.657	0.904	0.637	0.674
NCI-H2126	0.669	0.73	0.672	0.706	0.649	0.571	0.512	0.574	0.526	0.531	1.19	1.2	1.26	1.31	1.1	0.716	0.732	0.71	0.647	0.675
EPLC-272H	–	0.342	0.317	0.271	0.322	–	0.303	0.297	0.268	0.319	0.743	0.609	0.677	0.659	0.878	–	0.273	0.359	0.283	0.418
HCC-366	0.119	0.153	0.172	0.153	0.175	0.375	0.312	0.384	0.327	0.42	0.987	0.813	0.891	0.809	0.934	0.178	0.204	0.227	0.185	0.207
EKVX	–	0.391	0.371	0.45	0.392	–	0.317	0.329	0.245	0.331	0.395	0.386	0.728	0.834	0.533	–	0.391	0.421	0.461	0.444
NCI-H1395	–	0.788	0.913	0.91	0.726	0.995	0.96	0.924	0.899	0.857	0.956	0.898	0.957	0.795	0.806	0.762	0.886	0.768	0.792	0.653
201T	0.314	0.349	0.322	0.333	0.324	0.762	0.719	0.699	0.746	0.738	–	–	1.2	1.03	1.14	0.345	0.334	0.355	0.352	0.362
LC-2-ad	0.283	0.292	0.307	0.303	0.261	0.897	0.904	0.914	0.891	0.912	–	0.894	0.903	0.837	0.939	0.277	0.277	0.273	0.263	0.287
COR-L 105	0.686	1.08	1.25	0.983	1.04	0.448	0.463	0.475	0.432	0.468	1.17	1	1.1	1.07	0.943	1.27	1.09	1.27	1.19	1.01
HCC-78	0.901	0.872	0.938	0.918	0.66	0.84	0.701	0.869	0.617	0.669	0.557	0.557	0.568	0.539	0.571	0.909	0.925	0.91	0.494	0.853
ChaGo-K-1	–	0.266	0.275	0.262	0.255	0.673	0.842	0.923	0.857	0.905	0.874	0.873	0.845	0.784	0.923	0.227	0.266	0.245	0.246	0.257
NCI-H441	0.26	0.264	0.273	0.278	0.261	0.489	0.497	0.488	0.477	0.568	0.905	0.738	0.992	0.877	0.948	0.292	0.265	0.3	0.254	0.289

Cell Line	relative viability ([1]; first compound 0.08 µM)	relative viability ([1]; first compound 0.253 µM)	relative viability ([1]; first compound 0.8 µM)	relative viability ([1]; first compound 2.53 µM)	relative viability ([1]; first compound 8 µM)	relative viability (Veliparib + Trametinib; first compound 0.02 µM)	relative viability (Veliparib + Trametinib; first compound 0.06325 µM)	relative viability (Veliparib + Trametinib; first compound 0.2 µM)	relative viability (Veliparib + Trametinib; first compound 0.6325 µM)	relative viability (Veliparib + Trametinib; first compound 2 µM)	relative viability (Veliparib + Foretinib; first compound 0.02 µM)	relative viability (Veliparib + Foretinib; first compound 0.06325 µM)	relative viability (Veliparib + Foretinib; first compound 0.2 µM)	relative viability (Veliparib + Foretinib; first compound 0.6325 µM)	relative viability (Veliparib + Foretinib; first compound 2 µM)	relative viability (Veliparib + Pemetrexed; first compound 0.02 µM)	relative viability (Veliparib + Pemetrexed; first compound 0.06325 µM)	relative viability (Veliparib + Pemetrexed; first compound 0.2 µM)	relative viability (Veliparib + Pemetrexed; first compound 0.6325 µM)	relative viability (Veliparib + Pemetrexed; first compound 2 µM)
NCI-H650	0.864	1.03	0.89	0.892	0.888	0.999	0.999	0.988	0.938	0.971	1.06	0.95	1.05	1	1.09	0.992	0.895	0.868	0.822	0.961
SK-MES-1	0.968	0.985	0.9	0.896	0.849	0.531	0.54	0.525	0.53	0.627	1	0.799	0.995	0.837	1.01	1	0.901	0.946	0.901	0.995
NCI-H2170	0.276	0.268	0.266	0.26	0.235	0.872	1.02	1.01	0.901	0.935	0.977	1	0.963	0.942	1.03	0.256	0.244	0.253	0.237	0.273
A-427	0.923	–	0.965	0.907	0.842	0.792	0.727	0.801	0.722	0.875	–	0.936	0.991	0.981	1.11	1	0.966	0.946	1.03	1.04
HARA	–	0.263	0.277	0.258	0.203	0.745	–	0.949	0.796	0.798	0.898	1.06	0.866	0.851	0.828	0.254	–	0.219	0.265	0.261
NCI-H1944	–	0.63	0.568	0.705	0.527	0.432	0.398	0.418	0.418	0.405	0.806	0.906	0.731	0.817	0.813	0.596	0.695	0.547	0.607	0.615
NCI-H1915	0.441	0.527	0.49	0.485	0.447	0.309	0.289	0.302	0.292	0.291	1.09	0.975	1.03	0.92	0.969	0.532	0.463	0.537	0.491	0.487
NCI-H1793	–	0.943	0.997	1.08	0.698	0.476	0.417	0.474	0.361	0.465	0.652	0.608	0.814	0.747	0.794	0.755	0.763	0.935	1.07	0.875
NCI-H596	0.42	0.501	0.5	0.469	0.492	0.83	0.666	0.77	0.806	0.793	0.967	0.823	1.02	0.773	0.75	0.475	0.451	0.463	0.509	0.474
NCI-H1666	0.761	0.914	0.84	0.918	0.87	0.84	0.861	0.782	0.754	0.926	1.01	0.96	0.997	0.895	0.964	0.866	0.782	0.879	0.866	0.898
NCI-H3122	0.2	0.208	0.195	0.209	0.193	0.181	0.186	0.214	0.208	0.233	1	0.926	0.912	0.943	0.966	0.194	0.203	0.19	0.211	0.2
SW 900	0.446	0.47	0.478	0.486	0.474	–	0.75	0.938	0.621	0.828	–	–	0.905	0.781	0.945	–	0.492	0.493	0.467	0.511
PC-14	0.107	0.132	0.14	0.135	0.152	–	0.664	0.699	0.686	0.834	0.965	0.939	0.999	0.922	0.923	–	0.13	0.168	0.143	0.134
NCI-H2087	0.575	0.56	0.669	0.599	0.535	0.198	0.205	0.215	0.168	0.154	1.04	1.04	0.999	1.16	1.08	0.715	0.601	0.639	0.622	0.635
LCLC-103H	0.475	0.452	0.482	0.414	0.425	0.764	0.606	0.668	0.74	0.718	0.712	0.711	0.95	0.701	0.767	0.447	0.49	0.454	0.422	0.478
NCI-H1650	0.286	0.428	0.378	0.392	0.308	0.335	0.374	0.58	0.497	0.508	–	0.895	1.35	0.98	1.17	0.388	0.332	0.373	0.331	0.362

Source: the supplement of paper PMC10307832
